From patent US11439707B2, “Hypocrellin derivative substituted both in a peri-position and in 2-position by amino, preparation method, and application thereof” (priority 2017, dated 2022)

Tests used:
[1] = absorption spectrum (maximum absorption wavelength, molar extinction coefficient); type: physicochemical
[2] = singlet oxygen efficiency test, reference rose bengal; type: physicochemical

| SMILES | maximum absorption wavelength [1] | molar extinction coefficient [1] | singlet oxygen yield [2] |
| --- | --- | --- | --- |
| COCCOCCOCCOCCOCCOCCOC(=O)C1CCCC(Nc2c(O)c3c(=O)cc(OC)c4c5c(OC)cc(=O)c6c(NC7CCCC(C(=O)OCCOCCOCCOCCOCCOCCOC)C7)c(OC)c7c(c(c2C=C(C)C7C(C)=O)c34)c65)C1 (stereo not drawn) [HB-15b-PEG6] | 624 nm | 30,000 M^−1cm^−1 | 34% |
| COCCOCCOCCOCCOCCNC(=O)C1CCC(CNc2c(O)c3c(=O)cc(OC)c4c5c(OC)cc(=O)c6c(NCC7CCC(C(=O)NCCOCCOCCOCCOCCOC)CC7)c(OC)c7c(c(c2C=C(C)C7)c34)c65)CC1 (stereo not drawn) [HC-13b-NH-PEG4] | 624 nm | 30,000 M^−1cm^−1 | 32% |
| COc1c2c3c4c(c(NC(CCC(=O)O)C(=O)O)c(=O)c5c(O)cc(OC)c(c6c(OC)cc(NC(CCC(=O)O)C(=O)O)c(c1=O)c63)c54)C=C(C)C2C(C)=O (stereo not drawn) [HB-28d] | 620 nm | 20,500 M^−1cm^−1 | 18% |
| COc1c2c3c4c(c(NCCOCCO)c(=O)c5c(O)cc(OC)c(c6c(OC)cc(NCCOCCO)c(c1=O)c63)c54)C=C(C)C2 [HC-1d] | 626 nm | 28,500 M^−1cm^−1 | 32% |
| COc1c(O)c2c(=O)cc(OC)c3c4c(OC)cc(=O)c5c(NCCOC(=O)N6CC(=O)NC(=O)C6)c(NCCOC(=O)N6CC(=O)NC(=O)C6)c6c(c(c1C(C(C)=O)C(C)=C6)c23)c54 (stereo not drawn) [HB-40a] | 620 nm | 31,000 M^−1cm^−1 | 30% |
| COCCOCCOCCOCCOCCOCCOC(=O)CCCNc1c2c3c4c(c(OC)c(=O)c5c(O)cc(OC)c(c6c(OC)cc(NCCCC(=O)OCCOCCOCCOCCOCCOCCOC)c(c1=O)c63)c54)C(C(C)=O)C(C)=C2 (stereo not drawn) [HB-8c-PEG6] | 630 nm | 32,500 M^−1cm^−1 | 34% |
| COc1c(O)c2c(=O)cc(OC)c3c4c(OC)cc(=O)c5c(NC(CO)C(=O)O)c(NC(CO)C(=O)O)c6c(c(c1C(C(C)=O)C(C)=C6)c23)c54 (stereo not drawn) [HB-23a] | 625 nm | 21,500 M^−1cm^−1 | 20% |
| CCNc1c2c3c4c(c(OC)c(=O)c5c(O)cc(OC)c(c6c(OC)c(SCCO)c(NC7CCCC7)c(c1=O)c36)c54)C(C(C)=O)C(C)=C2 (stereo not drawn) [HB-S-44c] | 628 nm | 21,000 M^−1cm^−1 | 20% |
| COC(=O)C(CO)Nc1c(O)c2c(=O)cc(OC)c3c4c(OC)cc(=O)c5c(NC(CO)C(=O)OC)c(OC)c6c(c(c1C=C(C)C6C(C)=O)c23)c54 (stereo not drawn) [HB-24b] | 621 nm | 21,500 M^−1cm^−1 | 20% |
| COc1c2c3c4c(c(NC(CS)C(=O)O)c(=O)c5c(NC(CS)C(=O)O)cc(OC)c(c6c(OC)cc(O)c(c1=O)c63)c54)C=C(C)C2C(C)=O (stereo not drawn) [HB-25c] | 632 nm | 21,500 M^−1cm^−1 | 20% |
| COc1c(NC(CS)C(=O)O)c2c(=O)cc(OC)c3c4c(OC)cc(=O)c5c(O)c(NC(CS)C(=O)O)c6c(c(c1C(C(C)=O)C(C)=C6)c23)c54 (stereo not drawn) [HB-25b] | 629 nm | 20,500 M^−1cm^−1 | 20% |
| COc1c(O)c2c(=O)cc(OC)c3c4c(OC)cc(=O)c5c(NCC[N+]67CC[N+](C)(CC6)CC7)c(NCC[N+]67CC[N+](C)(CC6)CC7)c6c(c(c1C(C(C)=O)C(C)=C6)c23)c54 (stereo not drawn) [HB-41a] | 622 nm | 32,500 M^−1cm^−1 | 31% |
| COc1c(O)c2c(=O)cc(OC)c3c4c(OC)cc(=O)c5c(NCCCC(=O)NCC[N+](C)(C)C)c(NCCCC(=O)NCC[N+](C)(C)C)c6c(c(c1CC(C)=C6)c23)c54 [HC-8a-NH—C2-N^+] | 622 nm | 30,000 M^−1cm^−1 | 29% |
| COc1c(O)c2c(=O)cc(OC)c3c4c(OC)cc(=O)c5c(NCC6CCC(C(=O)OCC[N+](C)(C)C)CC6)c(NCC6CCC(C(=O)OCC[N+](C)(C)C)CC6)c6c(c(c1CC(C)=C6)c23)c54 (stereo not drawn) [HC-13a-C2-N^+] | 622 nm | 30,500 M^−1cm^−1 | 30% |
| COc1c2c3c4c(c(NC5CCCCC5C(=O)O)c(=O)c5c(O)cc(OC)c(c6c(OC)cc(NC7CCCCC7C(=O)O)c(c1=O)c63)c54)C=C(C)C2C(C)=O (stereo not drawn) [HB-16d] | 625 nm | 26,500 M^−1cm^−1 | 26% |
| COCCOCCOCCOCCOCCOCCOC(=O)C1CCC(Nc2c3c4c5c(c(OC)c(=O)c6c(NC7CCC(C(=O)OCCOCCOCCOCCOCCOCCOC)CC7)cc(OC)c(c7c(OC)cc(O)c(c2=O)c74)c65)C(C(C)=O)C(C)=C3)CC1 (stereo not drawn) [HB-14d-PEG6] | 630 nm | 31,500 M^−1cm^−1 | 32% |
| COc1c(O)c2c(=O)cc(OC)c3c4c(OC)cc(=O)c5c(NCc6cccc[n+]6CCCC(=O)O)c(NCc6cccc[n+]6CCCC(=O)O)c6c(c(c1C(C(C)=O)C(C)=C6)c23)c54 (stereo not drawn) [HB-38a-N—COOH] | 620 nm | 22,000 M^−1cm^−1 | 20% |

| SMILES | maximum absorption wavelength [1] | molar extinction coefficient [1] | singlet oxygen yield [2] |
| --- | --- | --- | --- |
| COc1c2c3c4c(c(NCCS(=O)(=O)OC)c(=O)c5c(NCCS(=O)(=O)OC)cc(OC)c(c6c(OC)cc(O)c(c1=O)c63)c54)C=C(C)C2C(C)=O (stereo not drawn) [HB-12c] | 622 nm | 23,500 M^−1cm^−1 | 22% |
| COCCOCCOCCOCCOCCOCCOCCC(=O)OCCOCCNc1c(O)c2c(=O)cc(OC)c3c4c(OC)cc(=O)c5c(NCCOCCOC(=O)CCOCCOCCOCCOCCOCCOCCOC)c(OC)c6c(c(c1C=C(C)C6)c23)c54 [HC-1b-PEG6] | 624 nm | 30,000 M^−1cm^−1 | 30% |
| COCCOCCC(=O)OCCOCCNc1c2c3c4c(c(OC)c(=O)c5c(O)cc(OC)c(c6c(OC)cc(NCCOCCOC(=O)CCOCCOC)c(c1=O)c63)c54)CC(C)=C2 [HC-1c-PEG1] | 625 nm | 32,500 M^−1cm^−1 | 34% |
| COc1c(NCCCCCC(=O)O)c2c(=O)cc(OC)c3c4c(OC)cc(=O)c5c(O)c(NCCCCCC(=O)O)c6c(c(c1CC(C)=C6)c23)c54 [HC-9b] | 622 nm | 27,500 M^−1cm^−1 | 24% |
| COc1c2c3c4c(c(NCc5cccc[n+]5C)c(=O)c5c(NCc6cccc[n+]6C)cc(OC)c(c6c(OC)cc(O)c(c1=O)c63)c54)C=C(C)C2C(C)=O (stereo not drawn) [HB-38c-N^+] | 622 nm | 22,500 M^−1cm^−1 | 21% |
| COc1c2c3c4c(c(NCCC5CCC(O)CC5)c(=O)c5c(O)cc(OC)c(c6c(OC)cc(NCCC7CCC(O)CC7)c(c1=O)c63)c54)C=C(C)C2C(C)=O (stereo not drawn) [HC-18d] | 622 nm | 23,500 M^−1cm^−1 | 20% |
| COCCOCCOCCOCCOCCOCCOCCC(=O)N1CCC(CNc2c(O)c3c(=O)cc(OC)c4c5c(OC)cc(=O)c6c(NCC7CCN(C(=O)CCOCCOCCOCCOCCOCCOCCOC)CC7)c(OC)c7c(c(c2C=C(C)C7C(C)=O)c34)c65)CC1 (stereo not drawn) [HB-31b-PEG6] | 622 nm | 31,000 M^−1cm^−1 | 38% |
| COC(=O)C1CCC(CNc2c3c4c5c(c(OC)c(=O)c6c(NCC7CCC(C(=O)OC)CC7)cc(OC)c(c7c(OC)cc(O)c(c2=O)c74)c65)C(C(C)=O)C(C)=C3)CC1 (stereo not drawn) [HB-13d-AcE] | 623 nm | 28,000 M^−1cm^−1 | 25% |
| CCNc1c(O)c2c(=O)cc(OC)c3c4c(OC)cc(=O)c5c(NC6CCCC6)c(OC)c6c(c(c1C=C(C)C6C(C)=O)c23)c54 (stereo not drawn) [HB-44b] | 621 nm | 21,000 M^−1cm^−1 | 18% |
| COc1c2c3c4c(c(NO)c(=O)c5c(O)cc(OC)c(c6c(OC)cc(NO)c(c1=O)c63)c54)C=C(C)C2 [HC-37d] | 620 nm | 32,000 M^−1cm^−1 | 33% |
| COCCOCCOCCOCCOCCNC(=O)C1CCC(CNc2c(O)c3c(=O)cc(OC)c4c5c(OC)cc(=O)c6c(NCC7CCC(C(=O)NCCOCCOCCOCCOCCOC)CC7)c(OC)c7c(c(c2C=C(C)C7C(C)=O)c34)c65)CC1 (stereo not drawn) [HB-13b-NH-PEG4] | 622 nm | 31,000 M^−1cm^−1 | 34% |
| COc1c2c3c4c(c(NCCNCCOCCO)c(=O)c5c(O)cc(OC)c(c6c(OC)cc(NCCNCCOCCO)c(c1=O)c63)c54)C=C(C)C2C(C)=O (stereo not drawn) [HB-5d-PEG1] | 625 nm | 30,500 M^−1cm^−1 | 32% |
| COc1c(NC2(CO)CC2)c2c(=O)cc(OC)c3c4c(OC)cc(=O)c5c(O)c(NC6(CO)CC6)c6c(c(c1C(C(C)=O)C(C)=C6)c23)c54 (stereo not drawn) [HB-35b] | 620 nm | 31,500 M^−1cm^−1 | 30% |
| COc1c(NCCCC(=O)OCCCC[N+](C)(C)C)c2c(=O)cc(OC)c3c4c(OC)cc(=O)c5c(O)c(NCCCC(=O)OCCCC[N+](C)(C)C)c6c(c(c1CC(C)=C6)c23)c54 [HC-8b-C4-N^+] | 625 nm | 31,000 M^−1cm^−1 | 32% |
| COCCOCCOCCOCCOCCOCCOCCOCCOC(=O)C1CCC(CNc2c3c4c5c(c(OC)c(=O)c6c(O)cc(OC)c(c7c(OC)cc(NCC8CCC(C(=O)OCCOCCOCCOCCOCCOCCOCCOCCOC)CC8)c(c2=O)c74)c65)CC(C)=C3)CC1 (stereo not drawn) [HC-13c-PEG8] | 628 nm | 32,500 M^−1cm^−1 | 38% |
| COc1c(NC(CCC(=O)O)C(=O)O)c2c(=O)cc(OC)c3c4c(OC)cc(=O)c5c(O)c(NC(CCC(=O)O)C(=O)O)c6c(c(c1C(C(C)=O)C(C)=C6)c23)c54 (stereo not drawn) [HB-28b] | 620 nm | 21,000 M^−1cm^−1 | 19% |
